Source: the supplement of paper PMC5844555

Columns and labels:
Assay in all cases: 3' UTR reporter interaction score (median-centred robust z-score of log2 firefly/Renilla activity); higher = less repression of the 3' UTR reporter
Conditions in all cases: HEK293T; 48 h
BRCA2 = system: BRCA2
Summary of the method: (§1)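 Using DharmaFECT Duo, HEK293T cells (10,000/well, 96-well plates) were co-transfected with 2.5 pmol miRNA mimic, 100 ng firefly luc2P reporter containing the gene's 3' UTR and 20 ng Renilla pRL-TK control, and dual-luciferase activity was read 48 h later. The interaction score is the log firefly/Renilla ratio as a per-plate robust z-score (median, median absolute deviation), median-centred per miRNA, averaged over at least two independent screens; lower, more negative values indicate interaction.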

EZH2 = system: EZH2
Summary of the method: as §1

FBXW7 = system: FBXW7
Summary of the method: as §1

HRAS = system: HRAS
Summary of the method: as §1

MYB = system: MYB
Summary of the method: as §1

MYCN = system: MYCN
Summary of the method: as §1

MYC = system: MYC
Summary of the method: as §1

MYT1L = system: MYT1L
Summary of the method: as §1

NOTCH1 = system: NOTCH1
Summary of the method: as §1

PHF6 = system: PHF6
Summary of the method: as §1

PHOX2B = system: PHOX2B
Summary of the method: as §1

RB1 = system: RB1
Summary of the method: as §1

TP53 = system: TP53
Summary of the method: as §1

ZEB2 = system: ZEB2
Summary of the method: as §1

Sequence | 3' UTR reporter interaction score (BRCA2) | 3' UTR reporter interaction score (EZH2) | 3' UTR reporter interaction score (FBXW7) | 3' UTR reporter interaction score (HRAS) | 3' UTR reporter interaction score (MYB) | 3' UTR reporter interaction score (MYCN) | 3' UTR reporter interaction score (MYC) | 3' UTR reporter interaction score (MYT1L) | 3' UTR reporter interaction score (NOTCH1) | 3' UTR reporter interaction score (PHF6) | 3' UTR reporter interaction score (PHOX2B) | 3' UTR reporter interaction score (RB1) | 3' UTR reporter interaction score (TP53) | 3' UTR reporter interaction score (ZEB2)
GACACGGGCGACAGCUGCGGCCC | -0.257 | -0.294 | -0.302 | 0.13 | 0.262 | -0.202 | -0.271 | -0.281 | -0.641 | 1.16 | -0.471 | 1.37 | 0.243 | 0.917
GACCUGGACAUGUUUGUGCCCAGU | 0.214 | -0.0513 | 0.534 | -0.318 | -0.217 | 0.492 | -0.104 | 0.464 | -0.107 | 0.792 | 0.605 | -0.469 | -0.242 | 2.18
GAGCCAGUUGGACAGGAGC | -1.34 | -0.353 | 0.107 | 0.00377 | 0.363 | 0.298 | -0.0272 | 0.521 | -0.874 | -1.97 | 0.261 | -0.775 | 1 | -0.65
GAGCUUAUUCAUAAAAGUGCAG | 0.117 | 0.564 | -1.75 | 0.562 | 0.663 | 0.314 | 1.07 | -2.82 | -0.458 | -0.038 | -0.299 | 2.05 | -1.36 | -1.29
GAGGUUGUCCGUGGUGAGUUCG | -0.325 | -0.239 | -1.94 | -0.768 | 0.0834 | -0.211 | -2.33 | 0.00527 | 0.138 | -0.125 | 0.511 | -0.327 | -0.45 | 0.323
GAGUGCCUUCUUUUGGAGCGU | -0.0488 | 0.0213 | 0.805 | -0.294 | -0.982 | 0.414 | -0.339 | 1.25 | -0.567 | 2.96 | -3.88 | 0.093 | -0.254 | -0.377
GAUGAGCUCAUUGUAAUAUG | -0.641 | 0.284 | 0.747 | 0.049 | 0.0611 | 0.201 | -0.384 | 1.26 | -0.218 | -0.609 | -0.674 | 0.134 | 0.29 | -1.1
GAUUGCUCUGCGUGCGGAAUCGAC | 0.00588 | 0.471 | -0.34 | -0.851 | -0.474 | -0.19 | -2.18 | -1.1 | -0.0878 | 0.0123 | 0.972 | 0.524 | -0.352 | -0.205
GCAAAGCACACGGCCUGCAGAGA | 0.0737 | 0.138 | 0.141 | -0.313 | 1.11 | -0.217 | 0.499 | -0.692 | 0.357 | 1.65 | -0.597 | -1.65 | -0.0423 | 0.307
